Our source for the IC50 values is patent US10278968B2, “Combination therapy with glutaminase inhibitors” (Calithera Biosciences, Inc., priority 2016, dated 2019).

The experiment has as its system P493-6 (myc "on") cells. In words: Cell Proliferation Assay. It is filed as cell-based. As to conditions: read-out: Cell prolif P493 72 h IC50; P493-6 cells, 72 h incubation. Here is the method: P493-6 (myc “on”) cells were maintained in growth media (RPMI-1640, 10% FBS, 2 mM glutamine, 100 units/ml Penicillin and 100 μg/ml streptomycin) at 37° C. with 5% CO2. For compound assay, P493-6 cells were plated in 96-well V-bottom plates on the day of compound addition in 50 μl of growth media at a cell density of 200,000 cells/ml (10,000 cells/well). Compounds were serially diluted in 100% DMSO at 200-times the final concentration. Compounds were diluted 100-fold into growth media and then 50 μl of this mixture was added to cell plates making the final concentration of DMSO 0.5%. Cells were incubated with compound for 72 hrs at 37° C. with 5% CO2 and analyzed for antiproliferative effects either by Cell Titer Glo (Promega) or FACS analysis using the Viacount (Millipore) kit on the Guava instrument.

By IC50 is commonly meant the midpoint of a concentration-inhibition curve. Turning to `COc1ccc(OC(F)(F)F)cc1CC(=O)Nc1ccc(CCCCc2nnc(NC(=O)Cc3ccccn3)s2)nn1` [Cmpd 717], the IC50 came to 19 nM.
